{"source": "patent US12146880B2", "about": "“Artificial transcription factors comprising a sliding domain and uses thereof” (priority 2013, dated 2024)", "key": {"phage λ DNA": {"system": "phage λ DNA", "assay": "Sliding assay: total internal reflection fluorescence microscopy of single TMR-labeled peptides on flow-stretched phage λ DNA", "format": "biochemical, bacteriophage λ", "conditions": "for estimated 1D diffusion constants, D: peptides diffusing along λ-DNA, low salt buffer (FIG. 6); for 1D diffusion constant, D+SD / 1D diffusion constant, D+SEM: single molecule sliding trajectories; for 1D diffusion constant, D+SD: spread = standard deviation (FIGS. 7-12); for 1D diffusion constant, D+SEM: spread = standard mean error (FIGS. 7-12)", "source_text": "In vitro biophysical characterization of search process may be as follows. The search dynamics may be studied in vitro by directly observing fluorescently tagged compounds search DNA and bind their targets with a fluorescence microscope. In an exemplary method, linear fragments of DNA derived from bacteriophage λ (˜50 kb) are tethered on a glass coverslip and illuminated with TIRF microscopy. Flowing fluorescently tagged peptides over the coverslip stretches out the DNA hydrodynamically, and the peptides may be directly visualized as they search the DNA. Using computational algorithms, the peptides may be tracked and biophysical parameters such as the rate of diffusive translocation on DNA may be calculated from the estimated trajectories.\n[…]. A flow cell was constructed on top of the cover slip such that when laminar flow is applied, the DNA stretches in the direction of flow and orients itself parallel to and in close proximity to the surface of the cover slip. Evanescent waves from a laser reflecting off the coverslip-buffer interface were used to illuminate a very small volume (˜1 pL) with a few hundred nanometers of the glass surface. The interaction of a single, TMR-labeled peptide with DNA was visualized by a CMOS camera (ORCA-Flash 4.0 from Hamamatsu) with 5 ms time-resolution. Despite the optical resolution limit imposed by diffraction, the centroid position of each signal in each frame is determined with sub-diffraction-limited resolution, typically 1-30 nm for bright fluorescent conjugates.\nLabeled peptides were infused at concentration of 100-200 pM at rates of 20-50 mL/hour. High flow rates were chosen to drive the longitudinal DNA fluctuation faster than the imaging frame rate. The assay buffer consisted of 10 mM PBS (2 mM NaCl, 0.1 mM β-mercaptoethanol, 0.05 mM EDTA, 5% (v/v) glycerol, 0.01% (v/v) Tween-20, pH 6.8)."}, "λ-DNA [1]": {"system": "λ-DNA", "conditions": "cited from earlier work; for D1 ± s.e.: results from Xiong et al"}, "λ-DNA [2]": {"system": "λ-DNA", "assay": "Single molecule flow stretching experiments (1D diffusion of dye-labeled molecular sleds on λ-DNA)", "format": "biochemical, bacteriophage λ", "conditions": "for D1 ± s.e.: Table S5, 2 mM NaCl buffer, pH 7.4, >50 trajectories", "from_the_text": "Single Molecule Flow Stretching Experiments: The experimental details have been described by Xiong et al. Briefly, flow cells were constructed by sandwiching a double-sided tape with pre-cut channels between a poly(ethylene glycol) (PEG) functionalized coverslip and a PDMS slab containing inlet and outlet holes. The biotin-λ-DNA was made by ligating a DNA oligo with a biotin attached to the 5′ overhang of λ-DNA, and then immobilized onto the flow channel surface by utilizing biotin and streptavidin chemistry. Samples were infused at 10-400 pM concentrations at rates of 25 ml/hr. The assay buffer consisted of 10 mM phosphate buffer, 2 mM NaCl, 50 μM EDTA, 20 mM ethanol, 5% (v/v) glycerol, 0.01% Tween-20 and 0.1% (v/v) $-mercaptoethanol, and the pH was adjusted to 7.4 by adding aliquots of concentrated NaOH solution. Individual dye-labeled molecules were imaged by using a home-built total internal reflection fluorescence microscope based on a Nikon Ti body with a Hamamatsu ORCA-Flash 4.0 VI camera. Applicants used customized single particle tracking software to process the raw image data^11.\nTo study the motion of single molecules bound to DNA, Applicants applied a single-molecule flow-stretching assay that prepares long double-stranded DNA molecules as spatially extended templates for analysis of binding and transport activity of molecular sleds labeled with fluorescent dye molecules. […] In this assay (see a schematic in FIG. 19), functionalized DNA, e.g., biotin-k-DNA, was immobilized to a flow channel surface by one end and a laminar flow was applied to flow stretch the DNA. The flow rate was chosen so that the contribution of DNA fluctuations to the apparent motion of DNA-bound molecules along the DNA is negligible and the trajectories of single molecules were tracked by time-lapse fluorescence imaging. Here, Applicants applied the flow-stretching assay to study one-dimensional diffusion of modified peptides, peptide analogs and synthetic small molecules bound to DNA."}, "30 bp dsDNA [3]": {"target": "30 bp dsDNA", "assay": "Fluorescence polarization (FP) DNA binding experiments", "conditions": "Table S5; pH 7.4"}, "30 bp dsDNA [4]": {"target": "30 bp dsDNA", "conditions": "Table S1; Cy3B conjugated to Cys residues; results from Xiong et al; cited from earlier work"}}, "note": "Read-outs that look alike come from different tables or passages of the source. Primed or numbered codes have the meaning given here. Ends that are not written are not given here. TMR = fluorescent label conjugated to the Cys side chain; TMR″ = tetramethylrhodamine label", "data": [{"substance": "(K)13: TMR-labeled lysine homopolymer of 13 residues, SEQ ID NO: 52 (KKKKKKKKKKKKK; also: TMR-labeled, place not given here)", "values": [{"measurement": "estimated 1D diffusion constants, D", "setting": "phage λ DNA", "result": "17.3 ± 5.3", "unit": "million bp²/s"}]}, {"substance": "C(-TMR)-(K)13: TMR conjugated to Cys residue, SEQ ID NO: 36 (C(TMR)KKKKKKKKKKKKK)", "values": [{"measurement": "D1 ± s.e.", "setting": "λ-DNA [1]; Table S3", "result": "19.9 ± 1.3 M(bp^2/S)"}]}, {"substance": "C(-TMR)-(R)13: TMR conjugated to Cys residue, SEQ ID NO: 37 (C(TMR)RRRRRRRRRRRRR)", "values": [{"measurement": "D1 ± s.e.", "setting": "λ-DNA [1]; Table S3", "result": "12.9 ± 0.5 M(bp^2/S)"}]}, {"substance": "Cy3B-pentaethylenehexamine [Cy3B-PEHA]", "values": [{"measurement": "effect of increasing the salt concentration on the D1 value", "setting": "λ-DNA [2]; 2 mM NaCl vs 20 mM NaCl buffers, pH 7.4 (FIG. 14)", "result": "does not increase"}, {"measurement": "D1 ± s.e.", "setting": "λ-DNA [2]", "result": "10.1 ± 0.5 M(bp^2/S)"}, {"measurement": "D1 ± s.e.", "setting": "λ-DNA [2]; listed as PHEA-Cy3B", "result": "10.1±0.5 M(bp^2/S)"}, {"measurement": "Kd", "setting": "30 bp dsDNA [3]", "result": "1320 ± 248", "unit": "nM"}]}, {"substance": "FHHHHH", "values": [{"measurement": "estimated 1D diffusion constants, D", "setting": "phage λ DNA", "result": "14.9 ± 6.9", "unit": "million bp²/s"}]}, {"substance": "GRKKRRQRRRPPQ (also: TMR label, place not given here) [TAT]", "values": [{"measurement": "estimated 1D diffusion constants, D", "setting": "phage λ DNA", "result": "21 ± 7.5", "unit": "million bp²/s"}]}, {"substance": "GVQSLKRRRCF [pVlc-Cy38]", "values": [{"measurement": "D1 ± s.e.", "setting": "λ-DNA [1]; Table S1, Cy3B conjugated to Cys residues", "result": "35.1 ± 0.8 M(bp^2/S)"}, {"measurement": "sliding by itself (one-dimensional diffusion constant)", "setting": "λ-DNA [1]; literature reference 11 (Xiong)", "result": "35.2±0.8 M(bp2/s)"}, {"measurement": "Kd", "setting": "30 bp dsDNA [4]", "result": "378 ± 20", "unit": "nM"}]}, {"substance": "KRARNTEAARRSRAR [GCN4 helix]", "values": [{"measurement": "1D diffusion constant, D+SD", "setting": "phage λ DNA", "result": "12.8±5.5 ×10^6 bp^2s^−1"}, {"measurement": "1D diffusion constant, D+SEM", "setting": "phage λ DNA", "result": "12.8±0.6 ×10^6 bp^2s^−1"}]}, {"substance": "KRARNTEAARRSRAR-GSGSGS-KRRR (KRARNTEAARRSRARGSGSGSKRRR) [GCN4 helix-linker-KRRR]", "values": [{"measurement": "1D diffusion constant, D+SD", "setting": "phage λ DNA", "result": "11.3±4.1 ×10^6 bp^2s^−1"}, {"measurement": "1D diffusion constant, D+SEM", "setting": "phage λ DNA", "result": "11.3±0.6 ×10^6 bp^2s^−1"}]}, {"substance": "KRARNTEAARRSRAR-GSGSGS-pVIc [GCN4 helix-linker-pVIc]", "values": [{"measurement": "1D diffusion constant, D+SD", "setting": "phage λ DNA", "result": "9.6±4.3 ×10^6 bp^2s^−1"}, {"measurement": "1D diffusion constant, D+SEM", "setting": "phage λ DNA", "result": "9.6±0.7 ×10^6 bp^2s^−1"}]}, {"substance": "KRRR ({TMR″}-KRRR)", "values": [{"measurement": "estimated 1D diffusion constants, D", "setting": "phage λ DNA", "result": "20.3 ± 7.9", "unit": "million bp²/s"}]}, {"substance": "NVKRRTHNVLERQRRNELKRSFFALRDQ [cMyc helix]", "values": [{"measurement": "1D diffusion constant, D+SD", "setting": "phage λ DNA", "result": "12.8±5.0 ×10^6 bp^2s^−1"}, {"measurement": "1D diffusion constant, D+SEM", "setting": "phage λ DNA", "result": "12.8±0.3 ×10^6 bp^2s^−1"}]}, {"substance": "STSRHKKLMFKTE ({TMR″}-STSRHKKLMFKTE) [C-terminal sequence of p53]", "values": [{"measurement": "estimated 1D diffusion constants, D", "setting": "phage λ DNA", "result": "17.3 ± 5.3", "unit": "million bp²/s"}]}, {"substance": "TMR-(K)13: TMR conjugated to the N-terminal amine, SEQ ID NO: 38 ({TMR″}-KKKKKKKKKKKKK)", "values": [{"measurement": "D1 ± s.e.", "setting": "λ-DNA [1]; Table S3", "result": "8.9 ± 0.5 M(bp^2/S)"}]}, {"substance": "TMR-(R)13: TMR conjugated to the N-terminal amine, SEQ ID NO: 39 ({TMR″}-RRRRRRRRRRRRR)", "values": [{"measurement": "D1 ± s.e.", "setting": "λ-DNA [1]; Table S3", "result": "7.7 ± 0.7 M(bp^2/S)"}]}]}
